Converted amounts (≈) assume the structure as drawn. Read-outs that look alike come from different tables or passages of the source.
How the values were obtained:
L1210 = L1210 cell line; cited from earlier work
P388 leukemia = settings: cited from earlier work; for antitumor activity / toxicity in antitumoral study: P388 leukemia cell line in CDF1 mice
KB cells = settings: KB cell line; cited from earlier work
HT29 [1] = assay: SRB colorimetric cytotoxicity assay, HT29; assay type: cell-based; settings: for TGI / GI50: HT29, 72 hours treatment, SRB; for TGI: total cell growth inhibition; for CC50 / GI50: Homo sapiens; for CC50: HT-29, 72 h, read-out: LC50; for GI50: HT-29
Excerpt: (§1) The aim of this assay is to evaluate the in vitro cytostatic (ability to delay or arrest tumor cell growth) or cytotoxic (ability to kill tumor cells) activity of the samples being tested.
(§2) A colorimetric assay, using sulforhodamine B (SRB) reaction has been adapted to provide a quantitative measurement of cell growth and viability (following the technique described by Skehan et al. J. Natl. Cancer Inst. 1990, 82, 1107-1112).
(§3) This form of assay employs SBS-standard 96-well cell culture microplates (Faircloth et al. Methods in Cell Science, 1988, 11(4), 201-205; Mosmann et al, Journal of Immunological Methods, 1983, 65(1-2), 55-63). All the cell lines used in this study were obtained from the American Type Culture Collection (ATCC) and derive from different types of human cancer.
(§4) Cells were maintained in Dulbecco's Modified Eagle Medium (DMEM) supplemented with 10% Fetal Bovine Serum (FBS), 2 mM L-glutamine, 100 U/mL penicillin and 100 U/mL streptomycin at 37° C., 5% CO2 and 98% humidity. For the experiments, cells were harvested from subconfluent cultures using trypsinization and resuspended in fresh medium before counting and plating.
(§5) Cells were seeded in 96 well microtiter plates, at 5×10^3-7.5×10^3 cells per well in aliquots of 150 μL, and allowed to attach to the plate surface for 18 hours (overnight) in drug free medium. After that, one control (untreated) plate of each cell line was fixed (as described below) and used for time zero reference value. Culture plates were then treated with test compounds (50 μL aliquots of 4× stock solutions in complete culture medium plus 4% DMSO) using ten serial dilutions (concentrations ranging from 10 to 0.00262 μg/mL) and triplicate cultures (1% final concentration of DMSO). After 72 hours treatment, the antitumor effect was measured by using the SRB methodology: Briefly, cells were washed twice with PBS, fixed for 15 min in 1% glutaraldehyde solution at room temperature, rinsed twice in PBS, and stained in 0.4% SRB solution for 30 min at room temperature. Cells were then rinsed several times with 1% acetic acid solution and air-dried at room temperature. SRB was then extracted in 10 mM trizma base solution and the absorbance measured in an automated spectrophotometric plate reader at 490 nm. Effects on cell growth and survival were estimated by applying the NCI algorithm (Boyd M R and Paull K D. Drug Dev. Res. 1995, 34, 91-104).
(§6) Using the mean±SD of triplicate cultures, a dose-response curve was automatically generated using nonlinear regression analysis. Three reference parameters were calculated (NCI algorithm) by automatic interpolation: GI50=compound concentration that produces 50% cell growth inhibition, as compared to control cultures; TGI=compound concentration that produces total cell growth inhibition (cytostatic effect), as compared to control cultures, and LC50=compound concentration that produces 50% net cell killing (cytotoxic effect).

A549 [2] = assay: SRB colorimetric cytotoxicity assay, A549; assay type: cell-based; settings: for TGI / GI50: A549, 72 hours treatment, SRB; for TGI: total cell growth inhibition; for CC50 / GI50: Homo sapiens; for CC50: A549, 72 h, read-out: LC50
Excerpt: as §1, §2, §3, §4, §5, §6

MDA-MB-231 [3] = assay: SRB colorimetric cytotoxicity assay, MDA-MB-231; assay type: cell-based; settings: for LC50 (concentration killing 50% of cells) / GI50: Homo sapiens; for LC50 (concentration killing 50% of cells): MDA-MB-231, 72 h, read-out: LC50; for GI50 / TGI: MDA-MB-231, 72 hours treatment, SRB; for TGI: total cell growth inhibition
Excerpt: as §1, §2, §3, §4, §5, §6

MDA-MB-231 [4] = settings: cited from earlier work
HT29 [5] = settings: cited from earlier work
A549 [6] = settings: cited from earlier work

For `CO[C@H]1CC(CC[C@H](C)[C@H](O)[C@H](C)C2OC(=O)/C=C/C(C)=C/C[C@H](O)C[C@@H]3C=CC[C@@H](C[C@H](OC)[C@@H](C)[C@@H](O)C[C@@H](O)[C@H](C)[C@H](O)[C@@H](C)[C@H]([C@@H](C)CC[C@H]4C[C@H](OC)C[C@H](C)O4)OC(=O)/C=C/C(C)=C/C[C@H](O)C[C@@H]4C=CCC(C[C@H](OC)[C@@H](C)[C@@H](O)C[C@@H](O)[C@@H]2C)O4)O3)O[C@@H](C)C1` (stereo partly shown) [isoswinholide A], the “IC50 (cytotoxicity)” value (L1210) is listed as 1.35 mg/L (≈ 0.971 µM), the antitumor activity (P388 leukemia) is listed as “did not show promising antitumor activity” and the “toxicity in antitumoral study” value (P388 leukemia) is listed as “toxic”. The “IC50 (cytotoxicity)” value (KB cells) was 1.1 mg/L (≈ 0.791 µM).
For `CO[C@H]1CC(CC[C@H](C)[C@H](O)[C@H](C)[C@H]2OC(=O)/C=C/C(C)=C/C[C@H](O)C[C@@H]3C=CC[C@@H](C[C@H](OC)[C@@H](C)[C@@H](O)C[C@@H](O)[C@H](C)[C@@H]([C@@H](C)[C@@H](O)[C@@H](C)CC[C@H]4C[C@H](OC)C[C@H](C)O4)OC(=O)/C=C/C(C)=C/C[C@H](O)C[C@@H]4C=CC[C@@H](C[C@H](OC)[C@@H](C)[C@@H](O)C[C@@H](O)[C@@H]2C)O4)O3)O[C@@H](C)C1` (stereo partly shown) [Swinholide A], the “IC50 (cytotoxicity)” value (L1210) is given as 0.03 mg/L (≈ 0.0216 µM), the antitumor activity (P388 leukemia) is given as “did not show promising antitumor activity” and the “toxicity in antitumoral study” value (P388 leukemia) is given as “toxic”. For the same compound, the “IC50 (cytotoxicity)” value (KB cells) was 0.04 mg/L (≈ 0.0288 µM).
Compound `COCC1C/C(C)=C\C2OC(=O)C/C(=C\C=C\C(O)CC(O)C(C)C(OC)CCC(C)C(OC)CC3CC(=CC(=O)O3)CC(=O)N/C=C\C=C\CC(CC(=O)OC)CC(O)C/C(C)=C\C=C\C(OC)CC(=O)O1)C2C` (stereo not shown) [Nanomolide C] has a TGI (HT29 [1]) of 1.52E−08 Molar, a CC50 (HT29 [1]) of 0.0218 µM and a GI50 (HT29 [1]) of 0.0123 µM. It also gave a TGI (A549 [2]) of 2.47E−08 Molar, a CC50 (A549 [2]) of 0.0493 µM and a GI50 (A549 [2]) of 0.0142 µM. For the same compound, the LC50 (concentration killing 50% of cells) (MDA-MB-231 [3]) was 0.0228 µM, the GI50 (MDA-MB-231 [3]) was 0.0152 µM and the TGI (MDA-MB-231 [3]) was 1.90E−08 Molar.
For `COCC1C/C(C)=C\C2OC(=O)C=C(C/C=C/C(O)CC(O)C(C)C(OC)CCC(C)C(OC)CC3CC(=CC(=O)O3)CC(=O)N/C=C\C=C\CC(CC(=O)OC)CC(O)C/C(C)=C\C=C\C(OC)CC(=O)O1)C2C` (stereo not shown) [Nanomolide A], the TGI (HT29 [1]) was 1.04E−08 Molar, the CC50 (HT29 [1]) was 0.0161 µM and the GI50 (HT29 [1]) was 0.00759 µM. For the same compound, the TGI (A549 [2]) was 1.52E−08 Molar, the CC50 (A549 [2]) was 0.0237 µM and the GI50 (A549 [2]) was 0.0104 µM. It also gave an LC50 (concentration killing 50% of cells) (MDA-MB-231 [3]) of 0.0455 µM, a GI50 (MDA-MB-231 [3]) of 0.00835 µM and a TGI (MDA-MB-231 [3]) of 1.71E−08 Molar.
In the case of `COC1CC(C)OC(CCC(C)C(O)C(C)C2OC(=O)/C=C/C(C)=C/CC(O)CC3C=CCC(CC(OC)C(C)C(O)CC(O)C(C)C(C(C)C(O)C(C)CCC4CC(OC)CC(C)O4)OC(=O)/C(C)=C/CC(O)CC4C=CCC(CC(OC)C(C)C(O)CC(O)C2C)O4)O3)C1` (stereo not shown) [compound a], the GI50 (MDA-MB-231 [4]) is listed as 0.808 µM, the GI50 (HT29 [5]) is listed as 0.338 µM and the GI50 (A549 [6]) is listed as 0.228 µM.
In the case of `COC1CC(C)OC(CCC(C)C(O)C(C)C2OC(=O)/C=C\C(C)=C\CC(O)CC3C=CCC(CC(OC)C(C)C(O)CC(O)C(C)C(C(C)C(O)C(C)CCC4CC(O)CC(C)O4)OC(=O)/C=C\C(C)=C\CC(O)CC4C=CCC(CC(OC)C(C)C(O)CC(O)C2C)O4)O3)C1` (stereo not shown) [Swinholide C], the “IC50 (cytotoxicity)” value (L1210) is listed as 0.14 mg/L (≈ 0.102 µM) and the “IC50 (cytotoxicity)” value (KB cells) is listed as 0.05 mg/L (≈ 0.0363 µM).
In the case of `COC1CC(C)OC(CCC(C)C(O)C(C)C2OC(=O)/C(C)=C/CC(O)CC3C=CCC(CC(OC)C(C)C(O)CC(O)C(C)C(C(C)C(O)C(C)CCC4CC(OC)CC(C)O4)OC(=O)/C(C)=C/CC(O)CC4C=CCC(CC(OC)C(C)C(O)CC(O)C2C)O4)O3)C1` (stereo not shown) [Misakinolide A], the “IC50 (cytotoxicity)” value (L1210) is listed as 0.035 mg/L (≈ 0.0262 µM) and the T/C (P388 leukemia; dose of 0.1 mg/kg (mouse) against P388 leukemia) is listed as 140%.
For `CO[C@H]1CC(CC[C@H](C)C2OC(=O)/C=C/C(C)=C/CC(O)C[C@@H]3C=CCC(C[C@H](OC)[C@@H](C)[C@@H](O)C[C@@H](O)[C@H](C)[C@H](O)[C@@H](C)[C@H]([C@@H](C)CC[C@H]4C[C@H](OC)C[C@H](C)O4)OC(=O)/C=C/C(C)=C/C[C@H](O)C[C@@H]4C=CCC(C[C@H](OC)[C@@H](C)[C@@H](O)C[C@@H](O)[C@H](C)[C@H](O)[C@H]2C)O4)O3)O[C@@H](C)C1` (single isomer, unassigned) [isomer 11], the antitumor activity (P388 leukemia) is listed as “did not show promising antitumor activity” and the “toxicity in antitumoral study” value (P388 leukemia) is listed as “toxic”.
In the case of `COCC1C/C(C)=C\C2OC(=O)C=C(C/C=C/C(O)CC(O)C(C)C(OC)CCC(C)C(OC)CC3CC(=CC(=O)O3)CC(=O)N/C=C\C=C\CC3CC(=O)OC(C/C(C)=C\C=C\C(OC)CC(=O)O1)C3)C2C` (stereo not shown) [Nanomolide B], the TGI (HT29 [1]) is reported as 9.29E−08 Molar, the CC50 (HT29 [1]) is reported as 0.0978 µM and the GI50 (HT29 [1]) is reported as 0.088 µM. The TGI (A549 [2]) was 1.27E−07 Molar, the CC50 (A549 [2]) was 0.235 µM and the GI50 (A549 [2]) was 0.0734 µM. The LC50 (concentration killing 50% of cells) (MDA-MB-231 [3]) was 0.108 µM, the GI50 (MDA-MB-231 [3]) was 0.0949 µM and the TGI (MDA-MB-231 [3]) was 9.78E−08 Molar.
For Swinholide B, the “IC50 (cytotoxicity)” value (L1210) is listed as 0.30 mg/L and the “IC50 (cytotoxicity)” value (KB cells) is listed as 0.04 mg/L.

Reference: patent US20110118343A1, “Antitumoral Macrolides” (Pharma Mar, S. A., priority 2008, published 2011)
